Source: US8937183B2, “Detection of hydrogen peroxide” (Promega Corporation, priority 2011, dated 2015)
Blank lines part the entries; values can stand above or below the compound they belong to.

Experiments:
[1] = Background reduction of PBI 4472 with background reduction reagent (TCEP); format: biochemical; details: 50 μM, 100 mM Tris base pH 10.4, BRR (TCEP) versus untreated, FIG. 4
Description: PBI 4472 (50 μM) was incubated with assay buffer (100 mM Tris base, pH 10.4) for 15 minutes at room temperature. The samples were then either treated with a background reduction reagent (BRR; TCEP) or remained untreated. After a 15 minute incubation at room temperature, luciferin detection reagent with 1 mM D-cysteine (Promega Corporation) was added to the samples and incubated for 20 minutes at room temperature. Luminescence was detected on a Tecan F500 plate reader.

[2] = Generation of bioluminescence from luciferin borates upon treatment with hydrogen peroxide (luciferase light reaction); format: biochemical
Description: In this example, luciferin borates were incubated with hydrogen peroxide, and luciferin generation was measured using a light reaction catalyzed by luciferase. An increase in light output (bioluminescence) as a result of treatment of the luciferin borates with hydrogen peroxide indicates generation of luciferin as a result of the reaction with hydrogen peroxide.
1 M phosphate solutions (either 6.8 g of KH2PO4 (Fisher) or 11.4 g of K2HPO4 (Sigma) were dissolved in Nanopure water to 1 M) were diluted 1:5 with Nanopure water to produce 200 mM phosphate solutions. 200 mM phosphate buffers at pH 6.87, 7.41, 7.73, 8.04, and 9.18 were prepared. 4 mg/ml solutions of PBI 3048, 4013, 4424 and 4425 (FIG. 1) in DMSO (Fluka 41641) were made from solid powder.
Into two 96-well white, solid bottom luminometer plates (Promega Z3291) (labeled “A” and “B”), 50 μl of 200 mM phosphate buffer pH 6.87 was added to wells A1-H2; 50 μl of 200 mM phosphate pH 7.41 was added to wells A3-H4; 50 μl of 200 mM phosphate buffer pH 7.73 was added to wells A5-H6; 50 μl of 200 mM phosphate buffer pH 8.04 was added to wells A7-H8; and 50 μl of 200 mM phosphate buffer pH 9.18 was added to wells A9-H10.
50 μl of 4 mg/ml PBI 4013 in DMSO was diluted to 1.25 ml with Nanopure water, and 25 μl added to wells A1-D10 of plate A. 50 μl of 4 mg/ml PBI 4424 was diluted to 1.25 ml with Nanopure water, and 25 μl added to E1-H10 of plate A. 50 μl of 4 mg/ml PBI 3048 was diluted to 1.25 ml with Nanopure water, and 25 μl added to A1-D10 of plate B. 50 μl of 4 mg/ml PBI 4425 was diluted to 1.25 ml with Nanopure water, and 25 μl added to E1-H10 of plate B. 25 μl of Nanopure water was added to rows A and E of both plates. 17 μl of Nanopure water was added to rows B and F of both plates; and 8 μl of Nanopure water was added to rows C and G of both plates
A hydrogen peroxide solution (30% hydrogen peroxide, Sigma H1009-5 ml) was diluted to 60 μM hydrogen peroxide with Nanopure water, and 25 μl of the 60 μM hydrogen peroxide was added to rows D and H of both plates; 17 μl of […] hydrogen peroxide was added to rows C and G of both plates; and 8 μl of […] hydrogen peroxide was added to rows B and F of both plates. Both plates A and B were then gently mixed for 70 minutes.
A bottle of Reconstitution Buffer with Esterase (Promega V144B) was thawed and used to reconstitute a Luciferin Detection Reagent (Promega V859B) to create a reconstituted Luciferin Detection Reagent (“LDR”). 15 ml of 1 M HEPES buffer, pH 7.5 was mixed with 25 ml of the LDR, and 80 μl added to wells A1-H10 of two new luminometer plates (“R1” and “R2”).
Following incubation, 20 μl of the contents of wells A1-H10 of plate A was transferred to the same wells in plate R1, and 20 μl of A1-H10 of plate B was transferred to the same wells in plate R2. Plate R1 and R2 were then incubated at room temperature for 15 minutes, and bioluminescence was measured with a GloMax® luminometer (Promega Corp).
Bioluminescence from duplicate wells was averaged, and the average relative light units (RLUs) from samples containing peroxide were compared to those from the samples not containing peroxide incubated at the same pH (Table 1).

SMILES: CC1(C)OB(c2ccc(COc3ccc4nc(C#N)sc4c3)cc2)OC1(C)C [PBI 4472, 6-((4-(4,4,5,5-tetramethyl-1,3,2-dioxaborolan-2-yl)benzyl)oxy)benzo-[d]thiazole-2-carbonitrile]
background luminescence with reduction reagent (in words) [1]: can reduce background

average relative light units (bioluminescence) ([2]; H2O2 0 μM, phosphate buffer pH 6.87, 70 minutes): 392,535 RLU
average relative light units (bioluminescence) ([2]; H2O2 0 μM, phosphate buffer pH 7.41, 70 minutes): 418,478 RLU
average relative light units (bioluminescence) ([2]; H2O2 0 μM, phosphate buffer pH 7.73, 70 minutes): 470,830 RLU
average relative light units (bioluminescence) ([2]; H2O2 0 μM, phosphate buffer pH 8.04, 70 minutes): 561,030 RLU
average relative light units (bioluminescence) ([2]; H2O2 0 μM, phosphate buffer pH 9.18, 70 minutes): 819,156 RLU
average relative light units (bioluminescence) ([2]; H2O2 5 μM, phosphate buffer pH 6.87, 70 minutes): 521,375 RLU
average relative light units (bioluminescence) ([2]; H2O2 5 μM, phosphate buffer pH 7.41, 70 minutes): 794,181 RLU
average relative light units (bioluminescence) ([2]; H2O2 5 μM, phosphate buffer pH 7.73, 70 minutes): 1,200,842 RLU
average relative light units (bioluminescence) ([2]; H2O2 5 μM, phosphate buffer pH 8.04, 70 minutes): 1,831,013 RLU
average relative light units (bioluminescence) ([2]; H2O2 5 μM, phosphate buffer pH 9.18, 70 minutes): 3,834,248 RLU
average relative light units (bioluminescence) ([2]; H2O2 10 μM, phosphate buffer pH 6.87, 70 minutes): 717,216 RLU
average relative light units (bioluminescence) ([2]; H2O2 10 μM, phosphate buffer pH 7.41, 70 minutes): 1,302,514 RLU
average relative light units (bioluminescence) ([2]; H2O2 10 μM, phosphate buffer pH 7.73, 70 minutes): 2,057,780 RLU
average relative light units (bioluminescence) ([2]; H2O2 10 μM, phosphate buffer pH 8.04, 70 minutes): 3,137,287 RLU
average relative light units (bioluminescence) ([2]; H2O2 10 μM, phosphate buffer pH 9.18, 70 minutes): 6,426,397 RLU
average relative light units (bioluminescence) ([2]; H2O2 15 μM, phosphate buffer pH 6.87, 70 minutes): 833,785 RLU
average relative light units (bioluminescence) ([2]; H2O2 15 μM, phosphate buffer pH 7.41, 70 minutes): 1,709,044 RLU
average relative light units (bioluminescence) ([2]; H2O2 15 μM, phosphate buffer pH 7.73, 70 minutes): 2,713,251 RLU
average relative light units (bioluminescence) ([2]; H2O2 15 μM, phosphate buffer pH 8.04, 70 minutes): 4,193,451 RLU
average relative light units (bioluminescence) ([2]; H2O2 15 μM, phosphate buffer pH 9.18, 70 minutes): 7,447,757 RLU
light signal increase upon addition of hydrogen peroxide (in words) ([2]; all pH values 6.87 to 9.18): increased strongly
SMILES: O=C(O)C1CSC(c2nc3ccc(OCc4ccc(B(O)O)cc4)cc3s2)=N1 (stereo not shown) [PBI 3048]
